{"source": "patent US20070021304A1", "about": "“Non-salt glyphosate herbicide composition and method for preparing the same” (Sinon Corporation, priority 2005, published 2007)", "origin": "cited, not measured here", "details": "pH 1.9, 20° C."}
{"smiles": "O=C(O)CNCP(=O)(O)O", "note": "[Glyphosate]", "values": [{"measurement": "water solubility", "value": "approximately 10.5 g/L"}]}
